Test results published in article PMC12446476 (Nature Communications, 2025).
Values after ≈ are worked out from the molar mass of the structure shown. Like-named read-outs stand apart in the source and are kept apart here.

Test system: N. gonorrhoeae
Assay: MIC determination, Etest
Assay type: cell-based, Neisseria gonorrhoeae
Conditions: Neisseria gonorrhoeae, comparator antibiotics, read-out: Minimum inhibitory concentration
Text: The 2024 WHO N. gonorrhoeae reference strains were used for quality control. Only whole MIC doubling dilutions are reported. Clinical breakpoints or the epidemiological cutoff (ECOFF, to indicate azithromycin resistance) from EUCAST (v14.0, https://www.eucast.org/clinical_breakpoints) were used to classify isolates as antimicrobial susceptible or resistant. […] Two times the standard inoculum defined by CLSI was used to establish consistent growth in untreated control samples for some strains. In vitro time-kill assays were performed according to CLSI guidelines[65] using Columbia Broth (BD Difco) supplemented with 1% IsoVitaleX Enrichment (BD). Viable bacterial counts were generated by plating 10-fold serially diluted samples on GC agar plates containing 1% IsoVitaleX Enrichment (BD).

For `CO/N=C(\C(=O)N[C@@H]1C(=O)N2C(C(=O)O)=C(CSc3nc(=O)c(=O)[nH]n3C)CS[C@H]12)c1csc(N)n1` [Ceftriaxone, reference compound], the MIC (clinical N. gonorrhoeae isolate 1, Sweden 2023) was 4 ng/mL (≈ 7.21 nM), the MIC (clinical N. gonorrhoeae isolate 2, Sweden 2023) was 32 ng/mL (≈ 57.7 nM) and the MIC (clinical N. gonorrhoeae isolate 3, Sweden 2023) was 4 ng/mL (≈ 7.21 nM). It also gave an MIC (clinical N. gonorrhoeae isolate 4, Sweden 2023) of 32 ng/mL (≈ 57.7 nM), an MIC (clinical N. gonorrhoeae isolate 5, Sweden 2023) of 4 ng/mL (≈ 7.21 nM) and an MIC (clinical N. gonorrhoeae isolate 6, Sweden 2023) of less than 2 ng/mL. The MIC (clinical N. gonorrhoeae isolate 7, Sweden 2023) was 8 ng/mL (≈ 14.4 nM), the MIC (clinical N. gonorrhoeae isolate 8, Sweden 2023) was 4 ng/mL (≈ 7.21 nM) and the MIC (clinical N. gonorrhoeae isolate 9, Sweden 2023) was 4 ng/mL (≈ 7.21 nM). It also gave an MIC (clinical N. gonorrhoeae isolate 10, Sweden 2023) of less than 2 ng/mL, an MIC (clinical N. gonorrhoeae isolate 11, Sweden 2023) of 64 ng/mL (≈ 115 nM) and an MIC (clinical N. gonorrhoeae isolate 12, Sweden 2023) of 8 ng/mL (≈ 14.4 nM). It also gave an MIC (clinical N. gonorrhoeae isolate 13, Sweden 2023) of less than 2 ng/mL, an MIC (clinical N. gonorrhoeae isolate 14, Sweden 2023) of 4 ng/mL (≈ 7.21 nM) and an MIC (clinical N. gonorrhoeae isolate 15, Sweden 2023) of 4 ng/mL (≈ 7.21 nM). It also gave an MIC (clinical N. gonorrhoeae isolate 16, Sweden 2023) of 32 ng/mL (≈ 57.7 nM), an MIC (clinical N. gonorrhoeae isolate 17, Sweden 2023) of 4 ng/mL (≈ 7.21 nM) and an MIC (clinical N. gonorrhoeae isolate 18, Sweden 2023) of 4 ng/mL (≈ 7.21 nM). It also gave an MIC (clinical N. gonorrhoeae isolate 19, Sweden 2023) of 16 ng/mL (≈ 28.9 nM), an MIC (clinical N. gonorrhoeae isolate 20, Sweden 2023) of 2 ng/mL (≈ 3.61 nM) and an MIC (clinical N. gonorrhoeae isolate 21, Sweden 2023) of 2 ng/mL (≈ 3.61 nM). For the same compound, the MIC (clinical N. gonorrhoeae isolate 22, Sweden 2023) was 2 ng/mL (≈ 3.61 nM), the MIC (clinical N. gonorrhoeae isolate 23, Sweden 2023) was less than 2 ng/mL and the MIC (clinical N. gonorrhoeae isolate 24, Sweden 2023) was 2 ng/mL (≈ 3.61 nM). For the same compound, the MIC (clinical N. gonorrhoeae isolate 25, Sweden 2023) was 4 ng/mL (≈ 7.21 nM), the MIC (clinical N. gonorrhoeae isolate 26, Sweden 2023) was 4 ng/mL (≈ 7.21 nM) and the MIC (clinical N. gonorrhoeae isolate 27, Sweden 2023) was 4 ng/mL (≈ 7.21 nM). It also gave an MIC (clinical N. gonorrhoeae isolate 28, Sweden 2023) of 8 ng/mL (≈ 14.4 nM), an MIC (clinical N. gonorrhoeae isolate 29, Sweden 2023) of 4 ng/mL (≈ 7.21 nM) and an MIC (clinical N. gonorrhoeae isolate 30, Sweden 2023) of less than 2 ng/mL. For the same compound, the MIC (clinical N. gonorrhoeae isolate 31, Sweden 2023) was 4 ng/mL (≈ 7.21 nM), the MIC (clinical N. gonorrhoeae isolate 32, Sweden 2023) was 2 ng/mL (≈ 3.61 nM) and the MIC (clinical N. gonorrhoeae isolate 33, Sweden 2023) was 2 ng/mL (≈ 3.61 nM). It also gave an MIC (clinical N. gonorrhoeae isolate 34, Sweden 2023) of 4 ng/mL (≈ 7.21 nM), an MIC (clinical N. gonorrhoeae isolate 35, Sweden 2023) of 64 ng/mL (≈ 115 nM) and an MIC (clinical N. gonorrhoeae isolate 36, Sweden 2023) of 8 ng/mL (≈ 14.4 nM). The MIC (clinical N. gonorrhoeae isolate 37, Sweden 2023) was 16 ng/mL (≈ 28.9 nM), the MIC (clinical N. gonorrhoeae isolate 38, Sweden 2023) was 4 ng/mL (≈ 7.21 nM) and the MIC (clinical N. gonorrhoeae isolate 39, Sweden 2023) was 4 ng/mL (≈ 7.21 nM). It also gave an MIC (clinical N. gonorrhoeae isolate 40, Sweden 2023) of 8 ng/mL (≈ 14.4 nM), an MIC (clinical N. gonorrhoeae isolate 41, Sweden 2023) of 32 ng/mL (≈ 57.7 nM) and an MIC (clinical N. gonorrhoeae isolate 42, Sweden 2023) of less than 2 ng/mL. For the same compound, the MIC (clinical N. gonorrhoeae isolate 43, Sweden 2023) was 4 ng/mL (≈ 7.21 nM), the MIC (clinical N. gonorrhoeae isolate 44, Sweden 2023) was 64 ng/mL (≈ 115 nM) and the MIC (clinical N. gonorrhoeae isolate 45, Sweden 2023) was 2 ng/mL (≈ 3.61 nM). For the same compound, the MIC (clinical N. gonorrhoeae isolate 46, Sweden 2023) was 16 ng/mL (≈ 28.9 nM), the MIC (clinical N. gonorrhoeae isolate 47, Sweden 2023) was 8 ng/mL (≈ 14.4 nM) and the MIC (clinical N. gonorrhoeae isolate 48, Sweden 2023) was 4 ng/mL (≈ 7.21 nM). It also gave an MIC (clinical N. gonorrhoeae isolate 49, Sweden 2023) of 4 ng/mL (≈ 7.21 nM), an MIC (clinical N. gonorrhoeae isolate 50, Sweden 2023) of 4 ng/mL (≈ 7.21 nM) and an MIC (clinical N. gonorrhoeae isolate 51, Sweden 2023) of 2 ng/mL (≈ 3.61 nM). For the same compound, the MIC (clinical N. gonorrhoeae isolate 52, Sweden 2023) was 2 ng/mL (≈ 3.61 nM), the MIC (clinical N. gonorrhoeae isolate 53, Sweden 2023) was 2 ng/mL (≈ 3.61 nM) and the MIC (clinical N. gonorrhoeae isolate 54, Sweden 2023) was 4 ng/mL (≈ 7.21 nM). The MIC (clinical N. gonorrhoeae isolate 55, Sweden 2023) was 4 ng/mL (≈ 7.21 nM), the MIC (clinical N. gonorrhoeae isolate 56, Sweden 2023) was 32 ng/mL (≈ 57.7 nM) and the MIC (clinical N. gonorrhoeae isolate 57, Sweden 2023) was 16 ng/mL (≈ 28.9 nM). It also gave an MIC (clinical N. gonorrhoeae isolate 58, Sweden 2023) of 2 ng/mL (≈ 3.61 nM), an MIC (clinical N. gonorrhoeae isolate 59, Sweden 2023) of 16 ng/mL (≈ 28.9 nM) and an MIC (clinical N. gonorrhoeae isolate 60, Sweden 2023) of 2 ng/mL (≈ 3.61 nM). For the same compound, the MIC (clinical N. gonorrhoeae isolate 61, Sweden 2023) was less than 2 ng/mL, the MIC (clinical N. gonorrhoeae isolate 62, Sweden 2023) was less than 2 ng/mL and the MIC (clinical N. gonorrhoeae isolate 63, Sweden 2023) was less than 2 ng/mL. For the same compound, the MIC (clinical N. gonorrhoeae isolate 64, Sweden 2023) was 16 ng/mL (≈ 28.9 nM), the MIC (clinical N. gonorrhoeae isolate 65, Sweden 2023) was less than 2 ng/mL and the MIC (clinical N. gonorrhoeae isolate 66, Sweden 2023) was 32 ng/mL (≈ 57.7 nM). For the same compound, the MIC (clinical N. gonorrhoeae isolate 67, Sweden 2023) was 16 ng/mL (≈ 28.9 nM), the MIC (clinical N. gonorrhoeae isolate 68, Sweden 2023) was 4 ng/mL (≈ 7.21 nM) and the MIC (clinical N. gonorrhoeae isolate 69, Sweden 2023) was 4 ng/mL (≈ 7.21 nM). It also gave an MIC (clinical N. gonorrhoeae isolate 70, Sweden 2023) of less than 2 ng/mL, an MIC (clinical N. gonorrhoeae isolate 71, Sweden 2023) of 32 ng/mL (≈ 57.7 nM) and an MIC (clinical N. gonorrhoeae isolate 72, Sweden 2023) of 32 ng/mL (≈ 57.7 nM). It also gave an MIC (clinical N. gonorrhoeae isolate 73, Sweden 2023) of 16 ng/mL (≈ 28.9 nM), an MIC (clinical N. gonorrhoeae isolate 74, Sweden 2023) of 32 ng/mL (≈ 57.7 nM) and an MIC (clinical N. gonorrhoeae isolate 75, Sweden 2023) of 32 ng/mL (≈ 57.7 nM). For the same compound, the MIC (clinical N. gonorrhoeae isolate 76, Sweden 2023) was 4 ng/mL (≈ 7.21 nM), the MIC (clinical N. gonorrhoeae isolate 77, Sweden 2023) was 2 ng/mL (≈ 3.61 nM) and the MIC (clinical N. gonorrhoeae isolate 78, Sweden 2023) was 16 ng/mL (≈ 28.9 nM). It also gave an MIC (clinical N. gonorrhoeae isolate 79, Sweden 2023) of less than 2 ng/mL, an MIC (clinical N. gonorrhoeae isolate 80, Sweden 2023) of 8 ng/mL (≈ 14.4 nM) and an MIC (clinical N. gonorrhoeae isolate 81, Sweden 2023) of 4 ng/mL (≈ 7.21 nM). The MIC (clinical N. gonorrhoeae isolate 82, Sweden 2023) was 16 ng/mL (≈ 28.9 nM), the MIC (clinical N. gonorrhoeae isolate 83, Sweden 2023) was 4 ng/mL (≈ 7.21 nM) and the MIC (clinical N. gonorrhoeae isolate 84, Sweden 2023) was 64 ng/mL (≈ 115 nM). It also gave an MIC (clinical N. gonorrhoeae isolate 85, Sweden 2023) of 4 ng/mL (≈ 7.21 nM), an MIC (clinical N. gonorrhoeae isolate 86, Sweden 2023) of 8 ng/mL (≈ 14.4 nM) and an MIC (clinical N. gonorrhoeae isolate 87, Sweden 2023) of 2 ng/mL (≈ 3.61 nM). For the same compound, the MIC (clinical N. gonorrhoeae isolate 88, Sweden 2023) was 64 ng/mL (≈ 115 nM), the MIC (clinical N. gonorrhoeae isolate 89, Sweden 2023) was 4 ng/mL (≈ 7.21 nM) and the MIC (clinical N. gonorrhoeae isolate 90, Sweden 2023) was 2 ng/mL (≈ 3.61 nM). The MIC (clinical N. gonorrhoeae isolate 91, Sweden 2023) was 4 ng/mL (≈ 7.21 nM), the MIC (clinical N. gonorrhoeae isolate 92, Sweden 2023) was 4 ng/mL (≈ 7.21 nM) and the MIC (clinical N. gonorrhoeae isolate 93, Sweden 2023) was 4 ng/mL (≈ 7.21 nM). The MIC (clinical N. gonorrhoeae isolate 94, Sweden 2023) was 2 ng/mL (≈ 3.61 nM), the MIC (clinical N. gonorrhoeae isolate 95, Sweden 2023) was less than 2 ng/mL and the MIC (clinical N. gonorrhoeae isolate 96, Sweden 2023) was 2 ng/mL (≈ 3.61 nM). The MIC (clinical N. gonorrhoeae isolate 97, Sweden 2023) was less than 2 ng/mL, the MIC (clinical N. gonorrhoeae isolate 98, Sweden 2023) was 2 ng/mL (≈ 3.61 nM) and the MIC (clinical N. gonorrhoeae isolate 99, Sweden 2023) was 4 ng/mL (≈ 7.21 nM). The MIC (clinical N. gonorrhoeae isolate 100, Sweden 2023) was 4 ng/mL (≈ 7.21 nM).
